Source: article PMC3596387, “Tripolin A, a Novel Small-Molecule Inhibitor of Aurora A Kinase, Reveals New Regulation of HURP's Distribution on Microtubules” (PLoS ONE, 2013)
Read-outs that look alike come from different tables or passages of the source.

Tests used:
Assay type in all cases: biochemical
Aurora A = biological target: T1, Aurora A (Homo sapiens, UniProt O14965); experiment: in vitro kinase assay (Z'LYTE Ser/Thr […] peptide; Easylite luminescence ATP detection)
T1 construct: gene AURKA; full length in pET21d, 6xHis tag (Aurora A-6xHis), E. coli, Ni-NTA purified
T1 sequence (O14965 1-403): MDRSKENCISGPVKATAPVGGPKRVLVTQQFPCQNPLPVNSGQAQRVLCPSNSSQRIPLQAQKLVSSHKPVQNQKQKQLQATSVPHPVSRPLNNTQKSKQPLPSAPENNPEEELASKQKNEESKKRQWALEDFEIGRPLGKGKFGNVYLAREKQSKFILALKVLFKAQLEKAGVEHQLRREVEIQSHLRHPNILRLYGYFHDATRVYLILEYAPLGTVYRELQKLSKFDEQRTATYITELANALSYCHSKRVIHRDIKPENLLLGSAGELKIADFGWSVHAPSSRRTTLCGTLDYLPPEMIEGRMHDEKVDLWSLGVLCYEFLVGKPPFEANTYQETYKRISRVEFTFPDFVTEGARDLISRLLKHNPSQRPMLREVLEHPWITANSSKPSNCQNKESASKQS

Aurora B = biological target: T2, Aurora B (Homo sapiens, UniProt Q96GD4); experiment: Z'LYTE kinase selectivity assay
T2 construct: gene AURKB; selectivity panel
Source text: Z'LYTE kinase selectivity assay on Aurora B

IGF1R = biological target: T3, IGF1R (Homo sapiens, UniProt P08069); experiment: Z'LYTE kinase selectivity assay
T3 construct: selectivity panel
Source text: Z'LYTE kinase selectivity assay on IGF1R

EGFR = biological target: T4, EGFR (Homo sapiens, UniProt P00533); experiment: Z'LYTE kinase selectivity assay
T4 construct: selectivity panel
Source text: Z'LYTE kinase selectivity assay on EGFR

KDR = biological target: T5, KDR (Homo sapiens, UniProt P35968); experiment: Z'LYTE kinase selectivity assay
T5 construct: selectivity panel
Source text: Z'LYTE kinase selectivity assay on KDR

FGFR = biological target: T6, FGFR; experiment: Z'LYTE kinase selectivity assay
T6 construct: gene FGFR1; selectivity panel
Source text: Z'LYTE kinase selectivity assay on FGFR

T3 sequence (P08069 31-736): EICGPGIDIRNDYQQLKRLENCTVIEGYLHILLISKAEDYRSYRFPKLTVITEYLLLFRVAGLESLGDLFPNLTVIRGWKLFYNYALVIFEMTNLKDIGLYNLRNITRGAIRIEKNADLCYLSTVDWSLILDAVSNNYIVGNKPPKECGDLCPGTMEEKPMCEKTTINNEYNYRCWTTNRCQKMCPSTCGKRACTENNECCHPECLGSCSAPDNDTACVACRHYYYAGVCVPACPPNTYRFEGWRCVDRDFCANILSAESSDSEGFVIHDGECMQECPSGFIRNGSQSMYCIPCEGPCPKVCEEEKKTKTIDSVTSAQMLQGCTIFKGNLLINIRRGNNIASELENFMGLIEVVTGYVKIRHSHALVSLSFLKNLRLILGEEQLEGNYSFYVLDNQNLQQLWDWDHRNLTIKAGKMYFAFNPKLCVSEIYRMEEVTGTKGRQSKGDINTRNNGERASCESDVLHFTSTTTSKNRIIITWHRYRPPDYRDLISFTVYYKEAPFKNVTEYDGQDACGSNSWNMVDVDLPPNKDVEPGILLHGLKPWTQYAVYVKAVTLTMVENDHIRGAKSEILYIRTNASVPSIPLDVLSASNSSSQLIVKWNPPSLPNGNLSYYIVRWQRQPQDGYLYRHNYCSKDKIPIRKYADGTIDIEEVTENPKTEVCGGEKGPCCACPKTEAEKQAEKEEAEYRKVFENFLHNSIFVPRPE
T3 sequence (P08069 741-1367): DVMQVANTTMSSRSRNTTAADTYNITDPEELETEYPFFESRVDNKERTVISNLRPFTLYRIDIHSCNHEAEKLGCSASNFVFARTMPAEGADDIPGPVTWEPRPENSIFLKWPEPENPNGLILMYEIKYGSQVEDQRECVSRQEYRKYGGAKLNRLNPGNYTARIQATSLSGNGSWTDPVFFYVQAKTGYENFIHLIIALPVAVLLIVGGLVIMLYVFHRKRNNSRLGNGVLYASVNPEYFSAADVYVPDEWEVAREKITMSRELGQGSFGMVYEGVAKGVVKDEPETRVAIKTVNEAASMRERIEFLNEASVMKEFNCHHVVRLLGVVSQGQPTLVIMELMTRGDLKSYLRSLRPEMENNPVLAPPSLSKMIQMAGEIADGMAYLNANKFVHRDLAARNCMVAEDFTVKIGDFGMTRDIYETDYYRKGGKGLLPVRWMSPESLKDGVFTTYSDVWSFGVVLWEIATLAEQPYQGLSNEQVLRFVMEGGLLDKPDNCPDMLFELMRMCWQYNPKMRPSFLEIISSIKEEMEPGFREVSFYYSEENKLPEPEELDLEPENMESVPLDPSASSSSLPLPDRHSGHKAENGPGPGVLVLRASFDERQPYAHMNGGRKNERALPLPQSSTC
T4 sequence (P00533 25-1210): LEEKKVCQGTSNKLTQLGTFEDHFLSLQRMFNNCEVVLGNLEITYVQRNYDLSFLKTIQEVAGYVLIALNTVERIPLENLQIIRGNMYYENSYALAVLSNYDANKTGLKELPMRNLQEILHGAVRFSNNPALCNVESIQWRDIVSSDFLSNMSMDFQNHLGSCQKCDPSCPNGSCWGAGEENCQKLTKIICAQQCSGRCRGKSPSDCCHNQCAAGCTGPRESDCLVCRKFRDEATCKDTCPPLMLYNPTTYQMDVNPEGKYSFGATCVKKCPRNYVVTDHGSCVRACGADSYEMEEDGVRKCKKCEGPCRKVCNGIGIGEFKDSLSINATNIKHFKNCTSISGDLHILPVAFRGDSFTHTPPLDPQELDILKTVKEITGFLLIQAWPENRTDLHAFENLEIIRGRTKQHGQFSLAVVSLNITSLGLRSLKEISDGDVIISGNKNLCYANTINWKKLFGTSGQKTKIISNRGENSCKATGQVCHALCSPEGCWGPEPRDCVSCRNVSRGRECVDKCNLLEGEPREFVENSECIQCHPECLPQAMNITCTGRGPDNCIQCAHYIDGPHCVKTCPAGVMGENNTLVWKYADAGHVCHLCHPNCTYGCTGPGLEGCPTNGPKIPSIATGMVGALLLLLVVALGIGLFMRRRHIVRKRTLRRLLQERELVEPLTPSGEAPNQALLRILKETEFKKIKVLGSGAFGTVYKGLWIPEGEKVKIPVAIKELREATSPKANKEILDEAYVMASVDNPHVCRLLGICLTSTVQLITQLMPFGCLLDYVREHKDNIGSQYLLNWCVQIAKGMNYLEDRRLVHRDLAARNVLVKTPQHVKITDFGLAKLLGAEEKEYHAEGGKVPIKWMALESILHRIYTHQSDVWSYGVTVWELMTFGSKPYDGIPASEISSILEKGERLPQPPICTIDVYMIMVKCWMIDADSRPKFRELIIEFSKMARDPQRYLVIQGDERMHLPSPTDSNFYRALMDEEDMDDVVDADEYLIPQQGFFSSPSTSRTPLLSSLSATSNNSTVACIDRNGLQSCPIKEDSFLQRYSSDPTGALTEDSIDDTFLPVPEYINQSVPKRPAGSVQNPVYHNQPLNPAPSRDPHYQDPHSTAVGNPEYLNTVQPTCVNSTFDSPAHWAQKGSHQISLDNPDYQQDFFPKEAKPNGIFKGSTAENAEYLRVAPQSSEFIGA
T2 sequence (Q96GD4 whole entry): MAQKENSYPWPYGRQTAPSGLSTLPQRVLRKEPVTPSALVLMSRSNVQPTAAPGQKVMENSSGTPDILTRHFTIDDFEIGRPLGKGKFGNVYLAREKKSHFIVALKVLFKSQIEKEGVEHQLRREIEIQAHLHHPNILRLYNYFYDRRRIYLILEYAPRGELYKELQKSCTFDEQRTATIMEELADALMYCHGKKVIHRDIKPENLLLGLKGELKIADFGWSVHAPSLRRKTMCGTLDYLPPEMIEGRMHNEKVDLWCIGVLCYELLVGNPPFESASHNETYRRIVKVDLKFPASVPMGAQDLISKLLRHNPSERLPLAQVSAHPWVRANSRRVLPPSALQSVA
T5 sequence (P35968 20-1356): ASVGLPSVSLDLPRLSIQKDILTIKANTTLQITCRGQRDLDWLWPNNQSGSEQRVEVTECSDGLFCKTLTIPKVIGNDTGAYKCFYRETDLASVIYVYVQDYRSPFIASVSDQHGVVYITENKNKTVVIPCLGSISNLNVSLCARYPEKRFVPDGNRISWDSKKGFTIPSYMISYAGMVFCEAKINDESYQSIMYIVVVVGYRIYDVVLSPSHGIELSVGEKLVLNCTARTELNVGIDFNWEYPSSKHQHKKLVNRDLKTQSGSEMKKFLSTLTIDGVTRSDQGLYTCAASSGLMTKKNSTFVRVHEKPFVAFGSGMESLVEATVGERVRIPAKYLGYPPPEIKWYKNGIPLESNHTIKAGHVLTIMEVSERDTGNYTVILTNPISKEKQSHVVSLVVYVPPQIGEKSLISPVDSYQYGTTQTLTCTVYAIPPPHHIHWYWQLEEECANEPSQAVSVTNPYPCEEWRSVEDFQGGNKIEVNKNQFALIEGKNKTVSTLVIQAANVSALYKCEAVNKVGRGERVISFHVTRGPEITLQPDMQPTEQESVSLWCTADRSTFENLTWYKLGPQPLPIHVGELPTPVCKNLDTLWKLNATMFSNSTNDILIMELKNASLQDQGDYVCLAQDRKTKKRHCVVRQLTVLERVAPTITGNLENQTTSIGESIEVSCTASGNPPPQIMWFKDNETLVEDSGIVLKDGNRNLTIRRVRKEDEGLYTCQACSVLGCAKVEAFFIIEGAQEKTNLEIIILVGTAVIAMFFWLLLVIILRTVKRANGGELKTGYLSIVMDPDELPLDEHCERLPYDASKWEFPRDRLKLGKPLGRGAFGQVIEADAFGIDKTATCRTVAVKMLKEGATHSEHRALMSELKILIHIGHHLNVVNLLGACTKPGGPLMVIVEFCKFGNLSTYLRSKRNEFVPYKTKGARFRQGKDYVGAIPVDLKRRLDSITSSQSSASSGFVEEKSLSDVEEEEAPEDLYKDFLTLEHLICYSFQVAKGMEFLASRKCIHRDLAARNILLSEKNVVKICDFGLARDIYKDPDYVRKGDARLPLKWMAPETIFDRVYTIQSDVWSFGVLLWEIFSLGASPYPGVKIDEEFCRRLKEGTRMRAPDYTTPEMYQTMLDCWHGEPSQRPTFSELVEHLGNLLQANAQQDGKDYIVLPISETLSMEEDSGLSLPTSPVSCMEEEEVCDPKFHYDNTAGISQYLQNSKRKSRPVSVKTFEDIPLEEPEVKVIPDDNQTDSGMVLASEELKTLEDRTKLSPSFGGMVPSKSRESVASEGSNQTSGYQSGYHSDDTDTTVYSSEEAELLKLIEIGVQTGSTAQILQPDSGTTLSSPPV

IC50 (Aurora A; read-out: Tripolin A)	IC50 (Aurora B; read-out: Tripolin A)	IC50 (IGF1R; read-out: Tripolin A)	IC50 (EGFR; read-out: Tripolin A)	IC50 (KDR; read-out: Tripolin A)	IC50 (FGFR; read-out: Tripolin A)	Compound	IC50 (Aurora A; read-out: Tripolin B)	IC50 (Aurora B; read-out: Tripolin B)	IC50 (IGF1R; read-out: Tripolin B)	IC50 (EGFR; read-out: Tripolin B)	IC50 (KDR; read-out: Tripolin B)	IC50 (FGFR; read-out: Tripolin B)
1500 nM	7 µM	14.9 µM	11 µM	17.9 µM	33.4 µM	O=C1Nc2ccccc2C1=Cc1cc(O)ccc1O [Tripolin A, 3-(2,5-Dihydroxy-benzylidene)-1,3-dihydro-indol-1-one]	–	–	–	–	–	–
–	–	–	–	–	–	O=C1Nc2ccccc2C1=Cc1cnc[nH]1 [Tripolin B, 3-(3H-Imidazol-4-ylmethylene)-1,3-dihydro-indol-2-one]	2500 nM	6 µM	13.2 µM	71.7 µM	6.5 µM	38 µM
